Experimental findings from article PMC11129182, “Development of Inhibitors, Probes, and PROTAC Provides a Complete Toolbox to Study PARK7 in the Living Cell” (Journal of Medicinal Chemistry, 2024) are described below.

This assay addresses T1, PARK7 (Homo sapiens, UniProt Q99497).
T1 sequence (Q99497 1-189): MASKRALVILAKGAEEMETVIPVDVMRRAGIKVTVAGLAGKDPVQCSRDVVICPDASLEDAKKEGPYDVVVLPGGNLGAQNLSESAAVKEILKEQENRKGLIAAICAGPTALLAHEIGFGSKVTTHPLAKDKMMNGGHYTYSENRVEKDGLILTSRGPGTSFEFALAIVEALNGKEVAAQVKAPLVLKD
In words: High-throughput screen of the crude compound library, PARK7 fluorescence polarization (FP) assay with FP reagent JYQ-107. To be noted: 1.25 µM, crude compound library, read-out: HTS FP assay %Inhibition (1.25 µM). Type of assay: biochemical.

The structures appear in SMILES notation. Where two headings read alike, the source gives them in different places.

As for `CN1C(=O)C[C@@H](C(=O)N2CCc3nc(NC(=O)[C@@H]4CCN(C#N)C4)sc3C2)[C@@H]1c1cccnc1` [compound 429], the inhibition at 1.25 µM (FP reagent JYQ-107) amounted to 59.5%.
With `N#CN1CC[C@@H](C(=O)Nc2nc3c(s2)CN(C(=O)c2csc(CCc4ccccc4)n2)CC3)C1` [compound 300], the inhibition at 1.25 µM was found to be 86.1%.
Still for that read-out and setting: with `N#CN1CC[C@@H](C(=O)Nc2nc3c(s2)CN(C(=O)c2csc(-c4cnc[nH]4)n2)CC3)C1` [compound 154] the figure was 77.3%.
For `Cc1cc(C(=O)N2CCc3nc(NC(=O)[C@@H]4CCN(C#N)C4)sc3C2)c(C2CC2)s1` [compound 91], the inhibition at 1.25 µM was found to be 82.6%.
As to `N#CN1CC[C@@H](C(=O)Nc2nc3c(s2)CN(C(=O)c2ccc(CNC(=O)OCC4c5ccccc5-c5ccccc54)cc2)CC3)C1` [compound 448], the inhibition at 1.25 µM (FP reagent JYQ-107) worked out at 63.9%.
Turning to `N#CN1CC[C@@H](C(=O)Nc2nc3c(s2)CN(C(=O)c2ccc(N4NC(=O)CCC4=O)cc2)CC3)C1` [compound 125], the inhibition at 1.25 µM came out at 85.7%.
As to `Cc1csc(N2CCC(C(=O)N3CCc4nc(NC(=O)[C@@H]5CCN(C#N)C5)sc4C3)CC2)n1` [compound 190], the inhibition at 1.25 µM was 51.8%.
On to `N#CN1CC[C@@H](C(=O)Nc2nc3c(s2)CN(C(=O)c2ccc(-c4ncon4)cc2)CC3)C1` [compound 379], for which the inhibition at 1.25 µM (FP reagent JYQ-107) stood at 75.2%.
Consider `N#CN1CC[C@@H](C(=O)Nc2nc3c(s2)CN(C(=O)Cc2cnn(Cc4ccccc4)c2)CC3)C1` [compound 303], for which the inhibition at 1.25 µM was 80.8%.
Take `Cc1nc(COc2ccc(C(=O)N3CCc4nc(NC(=O)[C@@H]5CCN(C#N)C5)sc4C3)cc2)no1` [compound 192]: the inhibition at 1.25 µM worked out at 84.8%.
Still for that read-out and setting: with `N#CN1CC[C@@H](C(=O)Nc2nc3c(s2)CN(C(=O)c2cccnc2-n2cncn2)CC3)C1` [compound 292] the figure was 73.8%.
In the case of `N#CN1CC[C@@H](C(=O)Nc2nc3c(s2)CN(C(=O)CC(NS(=O)(=O)c2ccccc2)c2ccc(Cl)cc2)CC3)C1` (some centres unmarked) [compound 54], the inhibition at 1.25 µM stood at 80.8%.
Same read-out and setting: with `N#CN1CC[C@@H](C(=O)Nc2nc3c(s2)CN(C(=O)Cc2cccc(OCc4cccnc4)c2)CC3)C1` [compound 118] the figure was 83.7%.
Turning to `CC(C)CC(=O)N1CCc2nc(NC(=O)[C@@H]3CCN(C#N)C3)sc2C1` [compound 390], for the setting “FP reagent JYQ-107”, the inhibition at 1.25 µM was 67.9%.
Turning to `N#CN1CC[C@@H](C(=O)Nc2nc3c(s2)CN(C(=O)CC2CCN(c4ccc(C(F)(F)F)cn4)CC2)CC3)C1` [compound 291], the inhibition at 1.25 µM amounted to 79.8%.
On the same count and under the same terms, with `N#CN1CC[C@@H](C(=O)Nc2nc3c(s2)CN(C(=O)c2cn(CC4CCCO4)nn2)CC3)C1` (some centres unmarked) [compound 186] the figure was 83.8%.
Same read-out and setting: with `Cc1oc(-c2ccco2)nc1CC(=O)N1CCc2nc(NC(=O)[C@@H]3CCN(C#N)C3)sc2C1` [compound 44] the figure was 71.6%; with `Cc1cc(-c2nc(C)sc2CC(=O)N2CCc3nc(NC(=O)[C@@H]4CCN(C#N)C4)sc3C2)c(C)s1` [compound 100], 75.4%.
Consider `N#CN1CC[C@@H](C(=O)Nc2nc3c(s2)CN(C(=O)CN2C(=O)c4ccccc4C2=O)CC3)C1` [compound 436], for which the inhibition at 1.25 µM (FP reagent JYQ-107) turned out to be 72.4%.
In the case of `CCCN(CCC)S(=O)(=O)c1ccc(C(=O)N2CCc3nc(NC(=O)[C@@H]4CCN(C#N)C4)sc3C2)cc1` [compound 428], the inhibition at 1.25 µM (FP reagent JYQ-107) was 85.1%.
Consider `Cc1nnnn1-c1cc(C(=O)N2CCc3nc(NC(=O)[C@@H]4CCN(C#N)C4)sc3C2)cc(C(F)(F)F)c1` [compound 87], for which the inhibition at 1.25 µM was determined as 86.5%.
Same read-out and setting: with `N#CN1CC[C@@H](C(=O)Nc2nc3c(s2)CN(C(=O)C2CCN(Cc4ccc(Cl)s4)CC2)CC3)C1` [compound 23] the figure was 68.4%; with `Cc1nn(-c2ccc(C(F)(F)F)cn2)c(C)c1CC(=O)N1CCc2nc(NC(=O)[C@@H]3CCN(C#N)C3)sc2C1` [compound 169], 77.8%; with `COc1ccc(C(=O)N2CCc3nc(NC(=O)[C@@H]4CCN(C#N)C4)sc3C2)cc1S(=O)(=O)NCc1ccccn1` [compound 194], 80.2%.
Still for that read-out and setting: with `Cc1onc(C(=O)N2CCc3nc(NC(=O)[C@@H]4CCN(C#N)C4)sc3C2)c1CN1CCN(C)CC1` [compound 331] the figure was 57.9%.
Regarding `N#CN1CC[C@@H](C(=O)Nc2nc3c(s2)CN(C(=O)c2ccc(F)c(F)c2)CC3)C1` [compound 446], the inhibition at 1.25 µM (FP reagent JYQ-107) worked out at 74.4%.
Take `COc1ccccc1N1CC(C(=O)N2CCc3nc(NC(=O)[C@@H]4CCN(C#N)C4)sc3C2)CCC1=O` (some centres unmarked) [compound 327]: the inhibition at 1.25 µM came out at 70%.
Turning to `N#CN1CC[C@@H](C(=O)Nc2nc3c(s2)CN(C(=O)C(c2ccccc2)n2cccc2)CC3)C1` (some centres unmarked) [compound 375], the inhibition at 1.25 µM (FP reagent JYQ-107) worked out at 68.5%.
Consider `CCn1nccc1-c1cc(C(=O)N2CCc3nc(NC(=O)[C@@H]4CCN(C#N)C4)sc3C2)no1` [compound 285], for which the inhibition at 1.25 µM was found to be 81.3%.
Regarding `CC1=NN(c2ccc(C(=O)N3CCc4nc(NC(=O)[C@@H]5CCN(C#N)C5)sc4C3)cc2)CC1` [compound 71], the inhibition at 1.25 µM was 69.5%.
The same measure, in the same setting: with `N#CN1CC[C@@H](C(=O)Nc2nc3c(s2)CN(C(=O)c2cc(S(N)(=O)=O)ccc2-c2cccc(C(F)(F)F)c2)CC3)C1` [compound 19] the figure was 69%; with `N#CN1CC[C@@H](C(=O)Nc2nc3c(s2)CN(C(=O)c2cc(Cl)nc(N4CCCC4)c2)CC3)C1` [compound 160], 74.9%; with `N#CN1CC[C@@H](C(=O)Nc2nc3c(s2)CN(C(=O)c2ccccc2OCc2cccs2)CC3)C1` [compound 325], 86.9%.
For `N#CN1CC[C@@H](C(=O)Nc2nc3c(s2)CN(C(=O)C(F)(F)n2cc(-c4ccccc4)nn2)CC3)C1` [compound 178], the inhibition at 1.25 µM turned out to be 45.6%.
As to `N#CN1CC[C@@H](C(=O)Nc2nc3c(s2)CN(C(=O)c2cnc(COc4ccccc4)s2)CC3)C1` [compound 70], the inhibition at 1.25 µM amounted to 85.9%.
As for `COc1ccccc1-c1nnc(CC(=O)N2CCc3nc(NC(=O)[C@@H]4CCN(C#N)C4)sc3C2)o1` [compound 78], the inhibition at 1.25 µM turned out to be 74.3%.
In the case of `N#CN1CC[C@@H](C(=O)Nc2nc3c(s2)CN(C(=O)C(Br)c2ccccc2)CC3)C1` (some centres unmarked) [compound 411], the inhibition at 1.25 µM (FP reagent JYQ-107) is 41.8%.
Regarding `N#CN1CC[C@@H](C(=O)Nc2nc3c(s2)CN(C(=O)Cc2csc(C4CC4)n2)CC3)C1` [compound 373], the inhibition at 1.25 µM (FP reagent JYQ-107) was found to be 81.4%.
Turning to `N#CN1CC[C@@H](C(=O)Nc2nc3c(s2)CN(C(=O)c2ncoc2C2CC2)CC3)C1` [compound 28], the inhibition at 1.25 µM was determined as 85.7%.
`N#CN1CC[C@@H](C(=O)Nc2nc3c(s2)CN(C(=O)c2cnnn2-c2ccccc2Cl)CC3)C1` [compound 40]: the inhibition at 1.25 µM came out at 68.9%.
As to `N#CN1CC[C@@H](C(=O)Nc2nc3c(s2)CN(C(=O)c2nc(N4CCOCC4)ncc2Cl)CC3)C1` [compound 376], the inhibition at 1.25 µM (FP reagent JYQ-107) came out at 70.8%.
Still for that read-out and setting: with `COCC(=O)N1CCc2nc(NC(=O)[C@@H]3CCN(C#N)C3)sc2C1` [compound 467] the figure was 67.9%; with `N#CN1CC[C@@H](C(=O)Nc2nc3c(s2)CN(C(=O)c2ccc4c(c2)OCO4)CC3)C1` [compound 470], 78.4%; with `N#CN1CC[C@@H](C(=O)Nc2nc3c(s2)CN(C(=O)c2ccc(S(=O)(=O)N4CCCCCC4)cc2)CC3)C1` [compound 387], 74.8%.
Take `N#CN1CC[C@@H](C(=O)Nc2nc3c(s2)CN(C(=O)c2ccc(Cn4cc(Cl)c(C(F)(F)F)n4)o2)CC3)C1` [compound 289]: the inhibition at 1.25 µM worked out at 81.4%.
As for `N#CN1CC[C@@H](C(=O)Nc2nc3c(s2)CN(C(=O)c2cc(COc4ccc(F)cc4F)on2)CC3)C1` [compound 335], the inhibition at 1.25 µM came out at 79.4%.
For `N#CN1CC[C@@H](C(=O)Nc2nc3c(s2)CN(C(=O)c2cccc(Oc4nccs4)c2)CC3)C1` [compound 351], under “FP reagent JYQ-107”, the inhibition at 1.25 µM amounted to 88.9%.
The same measure, in the same setting: with `CCn1nc(C(C)C)cc1C(=O)N1CCCCC1C(=O)N1CCc2nc(NC(=O)[C@@H]3CCN(C#N)C3)sc2C1` (some centres unmarked) [compound 349] the figure was 59.6%; with `N#CN1CC[C@@H](C(=O)Nc2nc3c(s2)CN(C(=O)Cc2csc(-c4ccccc4)n2)CC3)C1` [compound 346], 61.9%.
As for `N#CN1CC[C@@H](C(=O)Nc2nc3c(s2)CN(C(=O)C2CC(=O)N(c4cnccn4)C2)CC3)C1` (some centres unmarked) [compound 24], the inhibition at 1.25 µM stood at 71.4%.
With `N#CN1CC[C@@H](C(=O)Nc2nc3c(s2)CN(C(=O)c2ccc(N4CCCCCC4)nc2)CC3)C1` [compound 261], the inhibition at 1.25 µM came out at 84.5%.
`N#CN1CC[C@@H](C(=O)Nc2nc3c(s2)CN(C(=O)c2noc(Cc4ccccc4F)n2)CC3)C1` [compound 37]: the inhibition at 1.25 µM worked out at 73.8%.
The same measure, in the same setting: with `Cn1ncc(C(=O)N2CCc3nc(NC(=O)[C@@H]4CCN(C#N)C4)sc3C2)c1-n1cccc1` [compound 33] the figure was 87%; with `N#CN1CC[C@@H](C(=O)Nc2nc3c(s2)CN(C(=O)c2cc(OCc4ccccc4)ccn2)CC3)C1` [compound 66], 70.6%.
On the same count and under the same terms, with `N#CN1CC[C@@H](C(=O)Nc2nc3c(s2)CN(C(=O)c2cccc(S(=O)(=O)Nc4ccc(Cl)cc4)c2)CC3)C1` [compound 50] the figure was 86.7%.
On to `N#CN1CC[C@@H](C(=O)Nc2nc3c(s2)CN(C(=O)c2c[nH]nc2-c2ccncc2)CC3)C1` [compound 326], for which the inhibition at 1.25 µM was found to be 69.7%.
Still for that read-out and setting: with `CC1CC1C(=O)N1CCCCC1C(=O)N1CCc2nc(NC(=O)[C@@H]3CCN(C#N)C3)sc2C1` (some centres unmarked) [compound 61] the figure was 70.5%.
As to `N#CN1CC[C@@H](C(=O)Nc2nc3c(s2)CN(C(=O)c2ccccc2I)CC3)C1` [compound 391], the inhibition at 1.25 µM (FP reagent JYQ-107) turned out to be 73.6%.
Take `N#CN1CC[C@@H](C(=O)Nc2nc3c(s2)CN(C(=O)C2CC4C=CC2O4)CC3)C1` (some centres unmarked) [compound 275]: the inhibition at 1.25 µM came out at 72%.
